From US20030113385A1, “Use of combinations of active agents consisting of antimicrobially active substances and plant extracts containing terpene in veterinary medicine” (Boehringer Ingelheim Vetmedica GmbH, priority 1998, published 2003) come the findings set out here.

The subject of assay [1] is Staphylococcus aureus. The assay is described as follows: MIC on growth of Staphylococcus aureus in nutrient solution (ISB), microtitre plates, turbidity. It counts as cell-based. The conditions noted are these: for MIC: Staphylococcus aureus, read-out: average MIC (+standard deviation). As for the experimental part: (§1) The sensitivity tests and the experiments carried out with combinations of active agents—using the so-called Checkerboard design—in broth (nutrient medium) and milk, were carried out using microtitre plates. Three capsule-positive and three capsule-negative strains of Staphylococcus aureus were used. The so-called MIC value was determined by fluorometric methods (in milk).
(§2) The concentration of the standard solution of the tea tree oil used was 4% vol/vol.
(§3) The highest concentration used in the tests was 1/10th of the original standard solution, i.e. 0.4 vol-%.
1 Effect of tea tree oil (Ttoil) on the growth of Staphylococcus aureus in nutrient solution (ISB).
The results are given as the average minimum inhibitory concentration from four repeats
(§4) 3 Susceptibility of Staphylococcus aureus to selected antibacterial agents in nutrient medium (ISB) and milk. […] Each strain was tested […].

Assay [2] relates to Staphylococcus aureus. As to the kind of experiment: MIC on growth of Staphylococcus aureus in milk, microtitre plates, fluorometric. The settings on record: for MIC: Staphylococcus aureus, read-out: average MIC (+standard deviation). It counts as cell-based. As for the experimental part: as §1, §2, §3
2 Effect of tea tree oil on the growth of Staphylococcus aureus in normal milk. Each strain was tested four times.
as §4

Setting [3] is: three capsule negative Staph. aureus strains.
Setting [4] is: three capsule positive Staph. aureus strains.

As to `CC1(C)S[C@@H]2[C@H](NC(=O)Cc3ccccc3)C(=O)N2[C@H]1C(=O)O` [Penicillin G, penicillin G], the “MIC range (in brackets)” value in the assay on Staphylococcus aureus [1] (setting [3]) is on record as “(0.025-0.05) μg/ml”; in the assay on Staphylococcus aureus [1] (setting [4]), “(0.025-0.05) μg/ml”; in the assay on Staphylococcus aureus [2] (setting [3]), “(0.013-0.05) μg/ml”; in the assay on Staphylococcus aureus [2] (setting [4]), “(0.013-0.025) μg/ml”. Moreover, the “average MIC (+standard deviation)” value with Staphylococcus aureus [1] (setting [3]) is 0.033 ± 0.004 mg/L; in the assay with Staphylococcus aureus [1] (setting [4]), 0.035 ± 0.004 mg/L; in the assay with Staphylococcus aureus [2] (setting [3]), 0.031 ± 0.005 mg/L; in the assay on Staphylococcus aureus [2] (setting [4]) it was 0.022 ± 0.002 mg/L.
As to `CC(=O)OCC1=C(C(=O)O)N2C(=O)[C@@H](NC(=O)Cc3cccs3)[C@H]2SC1` [Cephalothin, cephalothin], the MIC with Staphylococcus aureus [1] (setting [3]) was 0.188 ± 0.019 mg/L; in the assay with Staphylococcus aureus [1] (setting [4]) it was 0.188 ± 0.019 mg/L; with Staphylococcus aureus [2] (setting [3]), 0.167 ± 0.018 mg/L; with Staphylococcus aureus [2] (setting [4]), 0.25 mg/L. For the same compound, the “MIC range (in brackets)” value with Staphylococcus aureus [1] (setting [3]), with Staphylococcus aureus [1] (setting [4]) and with Staphylococcus aureus [2] (setting [3]) was “(0.125-0.25) μg/ml” each time.
For spiramycin, the “MIC range (in brackets)” value in the assay on Staphylococcus aureus [1] (setting [3]) is given as “(10-20) μg/ml”; in the assay on Staphylococcus aureus [1] (setting [4]), “(10-20) μg/ml”; in the assay with Staphylococcus aureus [2] (setting [3]) it was “(6.25-50) μg/ml”; in the assay on Staphylococcus aureus [2] (setting [4]) it was “(12.5-50) μg/ml”. The “average MIC (+standard deviation)” value came out at 15 ± 1.5 mg/L with Staphylococcus aureus [1] (setting [3]), 15.83 ± 1.49 mg/L in the assay with Staphylococcus aureus [1] (setting [4]), 25.52 ± 4.82 mg/L in the assay with Staphylococcus aureus [2] (setting [3]) and 25 ± 3.77 mg/L in the assay with Staphylococcus aureus [2] (setting [4]).
`CC1(C)S[C@@H]2[C@H](NC(=O)[C@H](N)c3ccccc3)C(=O)N2[C@H]1C(=O)O` [Ampicillin, ampicillin]: the MIC in the assay on Staphylococcus aureus [1] (setting [3]) was found to be 0.198 ± 0.018 mg/L; in the assay with Staphylococcus aureus [1] (setting [4]), 0.188 ± 0.019 mg/L; in the assay on Staphylococcus aureus [2] (setting [3]), 0.104 ± 0.009 mg/L; in the assay on Staphylococcus aureus [2] (setting [4]), 0.12 ± 0.005 mg/L.

As a reminder, the MIC is the lowest concentration that inhibits growth of the organism.
